The source of these data is US12612407B2, “Imidazo[2,1-f][1,2,4]triazin-4-amine derivatives as TLR7 agonist” (BEIGENE, LTD., priority 2020, dated 2026).

The target in one assay is T1, human TLR7 (Homo sapiens, UniProt Q9NYK1).
T1 construct: host or cells: HEK293 (HEK-Blue hTLR7)
T1 sequence (Q9NYK1 27-1049): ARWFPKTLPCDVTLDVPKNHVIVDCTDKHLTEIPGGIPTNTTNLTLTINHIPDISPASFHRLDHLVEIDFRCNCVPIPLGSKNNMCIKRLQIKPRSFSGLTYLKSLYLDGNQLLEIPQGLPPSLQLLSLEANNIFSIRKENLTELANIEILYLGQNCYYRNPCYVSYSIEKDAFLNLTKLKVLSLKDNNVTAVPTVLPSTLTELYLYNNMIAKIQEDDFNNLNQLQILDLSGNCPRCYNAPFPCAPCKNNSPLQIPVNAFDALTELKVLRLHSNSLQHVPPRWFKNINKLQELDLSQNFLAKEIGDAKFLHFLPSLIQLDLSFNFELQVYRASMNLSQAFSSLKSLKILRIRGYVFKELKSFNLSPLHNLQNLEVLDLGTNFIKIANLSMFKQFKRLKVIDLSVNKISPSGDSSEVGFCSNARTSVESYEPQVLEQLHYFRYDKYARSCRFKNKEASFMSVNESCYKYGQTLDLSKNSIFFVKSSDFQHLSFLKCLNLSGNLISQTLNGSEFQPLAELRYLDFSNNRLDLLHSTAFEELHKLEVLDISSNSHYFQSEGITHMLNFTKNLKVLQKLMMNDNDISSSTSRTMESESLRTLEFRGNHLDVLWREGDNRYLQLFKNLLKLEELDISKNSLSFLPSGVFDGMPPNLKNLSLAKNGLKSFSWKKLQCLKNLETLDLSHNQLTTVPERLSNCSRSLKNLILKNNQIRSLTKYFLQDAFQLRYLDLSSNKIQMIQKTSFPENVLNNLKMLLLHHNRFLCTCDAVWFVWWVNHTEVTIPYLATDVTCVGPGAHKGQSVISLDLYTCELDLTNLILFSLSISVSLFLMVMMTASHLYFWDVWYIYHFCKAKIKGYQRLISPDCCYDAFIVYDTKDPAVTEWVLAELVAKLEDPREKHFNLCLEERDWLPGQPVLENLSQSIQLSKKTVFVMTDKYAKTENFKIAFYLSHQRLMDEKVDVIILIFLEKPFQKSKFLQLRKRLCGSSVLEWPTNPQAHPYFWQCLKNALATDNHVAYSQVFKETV
The assay can be described thus: HEK293-Blue hTLR7 Reporter Assay (QUANTI-BLUE, SEAP readout). The format is cell-based. As to conditions: HEK-Blue-hTLR7 cells, 24 hrs treatment, Table 1, B1-B232. As to the method: HEK293-Blue hTLR7 Reporter Assay: HEK-Blue-hTLR7 cell line (Invivogen, Cat. No. hkb-htlr7) was designed so that the expression of the secreted embryonic alkaline phosphatase (SEAP) was induced by activating NF-κ and AP-1 via stimulating human TLR7 with TLR7 agonists. HEK-Blue-hTLR7 cells were seeded at a density of 4×10^4 cells/well in a volume of 180 μL in a 96-well plate in DMEM (Cat. No. 11965-092) supplemented with 10% (v/v) heat-inactivated fetal bovine serum (FBS) (Gibco, 10099-1441), 100 U/ml penicillin and 100 μg/ml streptomycin (Gibco, 15140122) containing 50 U/mL penicillin, […] and 10% (v/v) heat-inactivated fetal bovine serum. The cells were settled for 5 hrs, then treated with increasing amounts of tested compounds at 37° C. for 24 hrs. Then 20 μL of the supernatant from each well was incubated with 180 μL Quanti-blue substrate solution at 37° C. for 10-30 mins before the activity of the SEAP was determined at 620-655 nm using a spectrophotometer. The EC50 value for each compound was calculated with GraphPad Prism software using the sigmoidal dose-response function.
For orientation: Reporter assays use an easily measured gene product as a stand-in for the process of interest.
For “1-((4-amino-7-((5-methyl-6-(piperazin-1-yl)pyridin-3-yl)methyl)imidazo[2,1-f][1,2,4]triazin-2-yl)oxy)hexan-3-ol [Compound B157]”, the response was half-maximal at 667 nM (EC50).
For the molecule “2-butoxy-7-((5-(piperidin-4-yl)pyridin-2-yl)methyl)imidazo[2,1-f][1,2,4]triazin-4-amine [Compound B77]”, the EC50 (usually the midpoint of the concentration-response curve) is 311 nM.
The same measure, in the same setting: in the case of “2-butoxy-7-((5-methyl-6-(2,7-diazaspiro[3.5]nonan-7-yl)pyridin-3-yl)methyl)imidazo[2,1-f][1,2,4]triazin-4-amine [Compound B86]” it was 202 nM; in that of “2-butoxy-7-((6-(4-ethylpiperazin-1-yl)-5-methylpyridin-3-yl)methyl)imidazo[2,1-f][1,2,4]triazin-4-amine [Compound B115]”, 190 nM.
“2-butoxy-7-((6-(piperidin-4-yl)-5-(trifluoromethyl)pyridin-3-yl)methyl)imidazo[2,1-f][1,2,4]triazin-4-amine [Compound B28]”: the EC50 was 302 nM.
“2-butyl-7-((5-methyl-6-(piperazin-1-yl)pyridin-3-yl)methyl)imidazo[2,1-f][1,2,4]triazine-2,4-diamine [Compound B13]” returned an EC50 of 48 nM.
With `CCC[C@H](C)Nc1nc(N)c2ncc(Cc3cnc(N4CCNCC4)c(C)c3)n2n1` (single isomer, unassigned) [Compound B148], the EC50 was found to be 6.5 nM. This EC50 is about 7.4-fold lower than that of the molecule before.
The molecule `CCC[C@H](C)Nc1nc(N)c2ncc(Cc3cnc(N4CCC(N(C)C)CC4)c(C)c3)n2n1` (single isomer, unassigned) [Compound B173] returned an EC50 of 2.3 nM.
As for `CCC[C@@H](C)Nc1nc(N)c2ncc(Cc3cnc(N4CCC(CN(C)C)CC4)c(C)c3)n2n1` (single isomer, unassigned) [Compound B178], the midpoint of the response, the EC50, lay at 17 nM. Compared with the last molecule, the EC50 is about 7.4-fold higher.
Molecule `CCC[C@@H](C)Nc1nc(N)c2ncc(Cc3cnc(N4CCC(N(C)C)CC4)c(C)c3)n2n1` (single isomer, unassigned) [Compound B185] showed an EC50 of 25 nM.
Molecule `CCC[C@@H](C)Nc1nc(N)c2ncc(Cc3cnc(N4CCNCC4)c(C)c3)n2n1` (single isomer, unassigned) [Compound B207] showed an EC50 of 56 nM.
As to `CCC[C@@H](C)Nc1nc(N)c2ncc(Cc3cnc(N4CCC(CNC)CC4)c(C)c3)n2n1` (single isomer, unassigned) [Compound B214], the midpoint of the response, the EC50, lay at 23 nM.
On the same count and under the same terms, in the case of `CCC[C@H](C)Oc1nc(N)c2ncc(Cc3cnc(N4CCC(CNC)CC4)c(C)c3)n2n1` (single isomer, unassigned) [Compound B221] it was 3.9 nM.
On to `CCC[C@@H](C)Oc1nc(N)c2ncc(Cc3cnc(N4CCC(CNC)CC4)c(C)c3)n2n1` (single isomer, unassigned) [Compound B222], for which the EC50 turned out to be 60 nM.
In the case of `CCC[C@H](CC)Oc1nc(N)c2ncc(Cc3cnc(N4CCNCC4)c(C)c3)n2n1` (single isomer, unassigned) [Compound B224], the EC50 is 5.1 nM.
The molecule `CCC[C@@H](CC)Oc1nc(N)c2ncc(Cc3cnc(N4CCNCC4)c(C)c3)n2n1` (single isomer, unassigned) [Compound B225] yielded an EC50 of 26 nM. Compared with the last molecule, the EC50 is about 5.1-fold higher.
Still for that read-out and setting: the same measure for `CCCCOc1nc(N)c2ncc(Cc3cnc(N4CCN(C)CC4)c(Cl)c3)n2n1` [Compound B1, 2-butoxy-7-((5-chloro-6-(4-methylpiperazin-1-yl)pyridin-3-yl)methyl)imidazo[2,1-f][1,2,4]triazin-4-amine]: 501 nM.
Take `CCCCOc1nc(N)c2ncc(Cc3cnc(N4CCNCC4)c(Cl)c3)n2n1` [Compound B2, 2-butoxy-7-((5-chloro-6-(piperazin-1-yl)pyridin-3-yl)methyl)imidazo[2,1-f][1,2,4]triazin-4-amine]: the response was half-maximal at 434 nM (EC50).
The molecule `CCCCOc1nc(N)c2ncc(Cc3ccc(C4CCNCC4)cc3)n2n1` [Compound B3, 2-butoxy-7-(4-(piperidin-4-yl)benzyl)imidazo[2,1-f][1,2,4]triazin-4-amine] returned an EC50 of 327 nM.
As for `C=CC(=O)N1CCN(c2ncc(Cc3cnc4c(N)nc(OCCCC)nn34)cc2Cl)CC1` [Compound B4, 1-(4-(5-((4-amino-2-butoxyimidazo[2,1-f][1,2,4]triazin-7-yl)methyl)-3-chloropyridin-2-yl)piperazin-1-yl)prop-2-en-1-one], the EC50 was greater than 10000 nM.
`COCCOc1nc(N)c2ncc(Cc3cnc(N4CCNCC4)c(Cl)c3)n2n1` [Compound B5, 7-((5-chloro-6-(piperazin-1-yl)pyridin-3-yl)methyl)-2-(2-methoxyethoxy)imidazo[2,1-f][1,2,4]triazin-4-amine] had an EC50 of 1230 nM.
On the same count and under the same terms, the same measure for `CCCCOc1nc(N)c2ncc(Cc3ccc(N4CCNCC4)nc3)n2n1` [Compound B6, 2-butoxy-7-((6-(piperazin-1-yl)pyridin-3-yl)methyl)imidazo[2,1-f][1,2,4]triazin-4-amine]: 421 nM; for `CCCCOc1nc(N)c2ncc(Cc3cnc(N4CCNCC4)cc3Cl)n2n1` [Compound B7, 2-butoxy-7-((4-chloro-6-(piperazin-1-yl)pyridin-3-yl)methyl)imidazo[2,1-f][1,2,4]triazin-4-amine]: 2380 nM.
Take `CCCCOc1nc(N)c2ncc(Cc3cnc(N4CCNCC4)c(C)c3)n2n1` [Compound B8, 2-butoxy-7-((5-methyl-6-(piperazin-1-yl)pyridin-3-yl)methyl)imidazo[2,1-f][1,2,4]triazin-4-amine]: the EC50 was determined as 136 nM.
The same measure, in the same setting: in the case of `CCCCOc1nc(N)c2ncc(Cc3cnc(N4CCNCC4)c(F)c3)n2n1` [Compound B9, 2-butoxy-7-((5-fluoro-6-(piperazin-1-yl)pyridin-3-yl)methyl)imidazo[2,1-f][1,2,4]triazin-4-amine] it was 345 nM; in that of `CCCCOc1nc(N)c2ncc(Cc3cnc(N4CCNCC4)c(C(F)(F)F)c3)n2n1` [Compound B10, 2-butoxy-7-((6-(piperazin-1-yl)-5-(trifluoromethyl)pyridin-3-yl)methyl)imidazo[2,1-f][1,2,4]triazin-4-amine], 417 nM.
`CCCCOc1nc(N)c2ncc(Cc3cnc(N4CCNCC4)c(OC)c3)n2n1` [Compound B11, 2-butoxy-7-((5-methoxy-6-(piperazin-1-yl)pyridin-3-yl)methyl)imidazo[2,1-f][1,2,4]triazin-4-amine] gave an EC50 of 247 nM.
`CCCCOc1nc(N)c2ncc(Cc3cnc(N4CCN(C(=O)CN(C)C)CC4)c(C)c3)n2n1` [Compound B12, 1-(4-(5-((4-amino-2-butoxyimidazo[2,1-f][1,2,4]triazin-7-yl)methyl)-3-methylpyridin-2-yl)piperazin-1-yl)-2-(dimethylamino)ethan-1-one]: the midpoint of the response, the EC50, lay at 44 nM.
Consider `CCCCOc1nc(N)c2ncc(Cc3ccc(C4CCN(C(=O)CN(C)C)CC4)cc3)n2n1` [Compound B14, 1-(4-(4-((4-amino-2-butoxyimidazo[2,1-f][1,2,4]triazin-7-yl)methyl)phenyl)piperidin-1-yl)-2-(dimethylamino)ethan-1-one], for which the EC50 came to 96 nM.
The same measure, in the same setting: the same measure for `CCCCOc1nc(N)c2ncc(Cc3ccc(C4CCNCC4)cn3)n2n1` [Compound B15, 2-butoxy-7-((5-(piperidin-4-yl)pyridin-2-yl)methyl)imidazo[2,1-f][1,2,4]triazin-4-amine]: 509 nM; for `CCCCOc1nc(N)c2ncc(Cc3ccc(N4CCNCC4)cn3)n2n1` [Compound B16, 2-butoxy-7-((5-(piperazin-1-yl)pyridin-2-yl)methyl)imidazo[2,1-f][1,2,4]triazin-4-amine]: 1440 nM.

Still in this assay, the particulars now being: HEK-Blue-hTLR7 cells, Table 2, C1-C6.
“6-propoxy-3-(4-(pyrrolidin-1-ylmethyl)benzyl)imidazo[1,2-b]pyridazin-8-amine [Compound C4]”: the EC50 is greater than 10000 nM.
